Experiment in all cases: relative viability (nuclei count vs DMSO), 5 days (fraction); higher = more cells survive
Compound in experiment [1]: C1=CC(=CC=C1C2=CC(=C(S2)NC(=O)N)C(=O)N)F [TPCA-1] + N=C(N)NC(=N)NCCc1ccccc1 [Phenformin] (partner 250 µM)
The method, boiled down: (§1)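 For relative viability, nuclei counts in treated wells were divided by those in vehicle wells. Lung cancer cell lines had been pin-tool dosed in 1536-well plates the day after seeding and cultured for 5 days, then fixed and stained in one step (final 0.05% Triton X-100, 1% formaldehyde, 1 ug/ml Hoechst) and imaged at 4×. Doses were one drug alone or a fixed anchor-drug dose plus five library-drug doses (not always all listed) in √10 steps, and values are duplicate-plate medians.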

Compound in experiment [2]: C[C@]12O[C@H](C[C@]1(O)CO)n1c3ccccc3c3c4c(c5c6ccccc6n2c5c31)CNC4=O [Lestaurtinib] + C[C@@H](Oc1cc(-c2cnn(C3CCNCC3)c2)cnc1N)c1c(Cl)ccc(F)c1Cl [Crizotinib] (partner 1 µM)
An outline of the steps:
as §1

Compound in experiment [3]: C[C@]12O[C@H](C[C@]1(O)CO)n1c3ccccc3c3c4c(c5c6ccccc6n2c5c31)CNC4=O [Lestaurtinib] + CS(=O)(=O)CCNCc1ccc(-c2ccc3ncnc(Nc4ccc(OCc5cccc(F)c5)c(Cl)c4)c3c2)o1 [Lapatinib] (partner 2 µM)
The method, boiled down:
as §1

Compound in experiment [4]: C1/C(=C\C2=CC=CS2)/C(=O)/C(=C/C3=CC=CS3)/C1 + COc1cc2c(Oc3ccc(NC(=O)C4(C(=O)Nc5ccc(F)cc5)CC4)cc3F)ccnc2cc1OCCCN1CCOCC1 [Foretinib] (partner 0.25 µM)
The method, boiled down: as §1

For UMC-11, the relative viability in experiment [1] (first compound 0.04 µM) amounted to 0.373; in experiment [1] (first compound 0.1265 µM) it was 0.299; in experiment [1] (first compound 0.4 µM), 0.36; in experiment [1] (first compound 1.265 µM) it was 0.307; in experiment [1] (first compound 4 µM) it was 0.171; in experiment [2] (first compound 0.005 µM), 0.5. Also, the relative viability in experiment [2] (first compound 0.01581 µM) turned out to be 0.6; in experiment [2] (first compound 0.05 µM) it was 0.416; in experiment [2] (first compound 0.1581 µM), 0.248; in experiment [2] (first compound 0.5 µM), 0.107; in experiment [3] (first compound 0.005 µM), 1.01; in experiment [3] (first compound 0.01581 µM), 0.921. Further, the relative viability in experiment [3] (first compound 0.05 µM) was 0.65; in experiment [3] (first compound 0.1581 µM), 0.305; in experiment [3] (first compound 0.5 µM), 0.196; in experiment [4] (first compound 0.2 µM), 0.993; in experiment [4] (first compound 0.6325 µM), 1.12; in experiment [4] (first compound 20 µM) it was 1.03.
